Test results taken from US10028934B2, “Substituted indazole derivatives active as kinase inhibitiors” (NERVIANO MEDICAL SCIENCES S.R.L., priority 2011, dated 2018).
Where a name gives a salt, the structure may show the parent alone.

Assays:
[1] = tested on: MOLM-13 cells; test: In vitro cell proliferation assay, MOLM-13 (CellTiter-Glo); format: cell-based; settings: human acute leukemia cells bearing FLT3-ITD mutation, 72 h
Description: (§1) The human acute leukemia MOLM-13 AND MV-4-11 cells, bearing a FLT3-ITD mutation, were seeded (5000 cells/well) in white 384 well-plates in complete medium (RPMI 1640 plus 10% Fetal bovine serum) and treated with compounds dissolved in 0.1% DMSO, 24 h after seeding. The cells were incubated at 37° C. and 5% CO2 and after 72 h the plates were processed using CellTiter-Glo assay (Promega) following the manufacturer's instruction.
(§2) CellTiter-Glo is a homogenous method based on the quantification of the ATP present, an indicator of metabolitically active cells. ATP was quantified using a system based on luciferase and D-luciferin resultant into light generation. The luminescent signal was proportional to the number of cells present in culture. Briefly, 25 microL/well reagent solution were added to each well and, after 5 minutes shaking, microplates were read by Envision (PerkinElmer) luminometer. Inhibitory activity was evaluated comparing treated versus control data using Symyx Assay Explorer (Symyx Technologies Inc.) program. IC50 was calculated using sigmoidal interpolation curve.

[2] = tested on: MV-4-11 cells; test: In vitro cell proliferation assay, MV-4-11 (CellTiter-Glo); format: cell-based; settings: MV4-11; human acute leukemia cells bearing FLT3-ITD mutation, 72 h
Description: as §1, §2

[3] = target: KIT kinase (GST-KIT cytoplasmic domain) (Homo sapiens (Human), UniProt P10721); test: Biochemical assay for inhibitors of KIT kinase activity; settings: pre activated enzyme 4 nM, 4.4 microM ATP, 60 minutes at r.t.
Description: The GST-KIT cytoplasmic domain has been expressed in Sf21 cells infected for 66 hrs at 27° C. The recombinant protein has been purified by affinity on GSH-sepharose and eluted with glutathione. […] At the end of the phosphorylation reaction, the not reacted ATP, cold and radioactive, was captured by an excess of dowex ion exchange resin that eventually settled by gravity to the bottom of the reaction plate. […] 500 g of wet resin (SIGMA, custom prepared resin DOWEX 1×8 200-400 mesh, 2.5 Kg) were weighed out and diluted to 2 L in 150 mM sodium formate, pH 3.00. The resin was allowed to settle down overnight and then the supernatant was discarded. After three washes as above over a couple of days, the resin was allowed to settle and two volumes (with respect to the resin volume) were added of 150 mM sodium formate buffer. […] NO: 2). The peptide was purchased from American Peptide Company (Sunnyvale, Calif.). […] An automated station for serial dilutions (Biomek FX, Beckman) was used for producing 1:3 dilutions in 100% DMSO, from line A1 to A10, and for all the compounds in the column. […] The following dispensation into the plates plus 3 cycles of mixing, done by the robot itself, started the kinase reaction. At this point, the correct concentrations were restored for all the reagents. […]

Sequence of KIT kinase (GST-KIT cytoplasmic domain) (P10721 544-976): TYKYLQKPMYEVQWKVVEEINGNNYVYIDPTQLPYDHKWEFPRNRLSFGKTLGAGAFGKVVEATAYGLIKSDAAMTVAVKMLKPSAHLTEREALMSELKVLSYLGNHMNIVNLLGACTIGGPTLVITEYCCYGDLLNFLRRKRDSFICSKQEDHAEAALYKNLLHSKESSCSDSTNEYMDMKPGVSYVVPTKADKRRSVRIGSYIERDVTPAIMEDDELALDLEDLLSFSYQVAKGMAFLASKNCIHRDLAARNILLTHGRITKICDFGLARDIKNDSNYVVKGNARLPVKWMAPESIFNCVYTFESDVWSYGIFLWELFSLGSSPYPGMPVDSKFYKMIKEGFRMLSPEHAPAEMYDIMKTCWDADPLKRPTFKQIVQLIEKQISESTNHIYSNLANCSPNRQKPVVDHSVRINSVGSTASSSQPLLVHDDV

| IC50 [1] | IC50 [2] | IC50 [3] | Structure (SMILES) |
| --- | --- | --- | --- |
| 789 nM | 683 nM |  | CN1CCN(c2ccc(C(=O)Nc3n[nH]c4cc(OCc5ccccc5)ccc34)cc2)CC1 [Cpd. 1, N-(6-Benzyloxy-1H-indazol-3-yl)-4-(4-methyl-piperazin-1-yl)-benzamide] |
| 1160 nM | 1480 nM |  | CN1CCN(c2ccc(C(=O)Nc3n[nH]c4cc(Oc5ccccc5)ccc34)cc2)CC1 [Cpd. 2, 4-(4-Methyl-piperazin-1-yl)-N-(6-phenoxy-1H-indazol-3-yl)-benzamide] |
| 92 nM | < 50 nM |  | CN1CCN(c2ccc(C(=O)Nc3n[nH]c4cc(Oc5ccc(OCc6ccccc6)cc5)ccc34)cc2)CC1 [Cpd. 4, N-[6-(4-Benzyloxy-phenoxy)-1H-indazol-3-yl]-4-(4-methyl-piperazin-1-yl)-benzamide] |
| 1980 nM | 2750 nM |  | CN1CCN(c2ccc(C(=O)Nc3n[nH]c4cc(Oc5ccc(Oc6ccccc6)cc5)ccc34)cc2)CC1 [Cpd. 8, 4-(4-Methyl-piperazin-1-yl)-N-[6-(4-phenoxy-phenoxy)-1H-indazol-3-yl]-benzamide] |
| 245 nM | 101 nM |  | CN1CCN(c2ccc(C(=O)Nc3n[nH]c4cc(Oc5cccc(OCc6ccccc6)c5)ccc34)cc2)CC1 [Cpd. 9, N-[6-(3-Benzyloxy-phenoxy)-1H-indazol-3-yl]-4-(4-methyl-piperazin-1-yl)-benzamide] |
| 139 nM | 118 nM |  | CN1CCN(c2ccc(C(=O)Nc3n[nH]c4cc(OCCOc5ccccc5)ccc34)cc2)CC1 [Cpd. 10, 4-(4-Methyl-piperazin-1-yl)-N-[6-(2-phenoxy-ethoxy)-1H-indazol-3-yl]-benzamide] |
| < 50 nM | < 50 nM |  | CN1CCN(c2ccc(C(=O)Nc3n[nH]c4cc(OCCOCc5ccccc5)ccc34)cc2)CC1 [Cpd. 11, N-[6-(2-Benzyloxy-ethoxy)-1H-indazol-3-yl]-4-(4-methyl-piperazin-1-yl)-benzamide] |
| < 50 nM | < 50 nM |  | C[N+]1([O-])CCN(c2ccc(C(=O)Nc3n[nH]c4cc(OCCOCc5ccccc5)ccc34)cc2)CC1 [Cpd. 14, N-[6-(2-Benzyloxy-ethoxy)-1H-indazol-3-yl]-4-(4-methyl-4-oxy-piperazin-1-yl)-benzamide] |
| < 50 nM | < 50 nM |  | CN(C)C1CCN(c2ccc(C(=O)Nc3n[nH]c4cc(OCCOCc5ccccc5)ccc34)cc2)CC1 [Cpd. 15, N-[6-(2-Benzyloxy-ethoxy)-1H-indazol-3-yl]-4-(4-dimethylamino-piperidin-1-yl)-benzamide] |
| < 50 nM | < 50 nM |  | CN(C)CCN(C)c1ccc(C(=O)Nc2n[nH]c3cc(OCCOCc4ccccc4)ccc23)cc1 [Cpd. 16, N-[6-(2-Benzyloxy-ethoxy)-1H-indazol-3-yl]-4-[(2-dimethylamino-ethyl)-methyl-amino]-benzamide] |
| 87 nM | < 50 nM |  | CN(C)CCCN(C)c1ccc(C(=O)Nc2n[nH]c3cc(OCCOCc4ccccc4)ccc23)cc1 [Cpd. 17, N-[6-(2-Benzyloxy-ethoxy)-1H-indazol-3-yl]-4-[(3-dimethylamino-propyl)-methyl-amino]-benzamide] |
| < 50 nM | < 50 nM |  | CN1CCC(Nc2ccc(C(=O)Nc3n[nH]c4cc(OCCOCc5ccccc5)ccc34)cc2)CC1 [Cpd. 19, N-[6-(2-Benzyloxy-ethoxy)-1H-indazol-3-yl]-4-(1-methyl-piperidin-4-ylamino)-benzamide] |
| 65 nM | < 50 nM |  | CN1CCC(Oc2ccc(C(=O)Nc3n[nH]c4cc(OCCOCc5ccccc5)ccc34)cc2)CC1 [Cpd. 22, N-[6-(2-Benzyloxy-ethoxy)-1H-indazol-3-yl]-4-(1-methyl-piperidin-4-yloxy)-benzamide] |
| < 50 nM | < 50 nM |  | O=C(Nc1n[nH]c2cc(OCCOCc3ccccc3)ccc12)c1ccc(NCCN2CCOCC2)cc1 [Cpd. 25, N-[6-(2-Benzyloxy-ethoxy)-1H-indazol-3-yl]-4-(2-morpholin-4-yl-ethylamino)-benzamide hydrochloride] |
| < 50 nM | < 50 nM |  | CN1CCC(CNc2ccc(C(=O)Nc3n[nH]c4cc(OCCOCc5ccccc5)ccc34)cc2)CC1 [Cpd. 27, N-[6-(2-Benzyloxy-ethoxy)-1H-indazol-3-yl]-4-[(1-methyl-piperidin-4-ylmethyl)-amino]-benzamide] |
| < 50 nM | < 50 nM |  | O=C(Nc1n[nH]c2cc(OCCOCc3ccccc3)ccc12)c1ccc(N2CC(N3CCCC3)C2)cc1 [Cpd. 28, N-[6-(2-Benzyloxy-ethoxy)-1H-indazol-3-yl]-4-(3-pyrrolidin-1-yl-azetidin-1-yl)-benzamide] |
| < 50 nM | < 50 nM |  | CN1CCN(c2cccc(C(=O)Nc3n[nH]c4cc(OCCOCc5ccccc5)ccc34)c2)CC1 [Cpd. 29, N-[6-(2-Benzyloxy-ethoxy)-1H-indazol-3-yl]-3-(4-methyl-piperazin-1-yl)-benzamide hydrochloride] |
| < 50 nM | < 50 nM | 50 nM | CN1CCN(c2ccc(C(=O)Nc3n[nH]c4cc(OCCOCc5ccc(F)cc5)ccc34)cc2)CC1 [Cpd. 32] |
| < 50 nM | < 50 nM | 50 nM | CN1CCN(c2ccc(C(=O)Nc3n[nH]c4cc(OCCOCc5ccc(C(F)(F)F)cc5)ccc34)cc2)CC1 [Cpd. 33, 4-(4-Methyl-piperazin-1-yl)-N-{6-[2-(4-trifluoromethyl-benzyloxy)-ethoxy]-1H-indazol-3-yl}-benzamide] |
| < 50 nM | < 50 nM |  | CN1CCN(c2ccc(C(=O)Nc3n[nH]c4cc(OCCOCc5cccc(C(F)(F)F)c5)ccc34)cc2)CC1 [Cpd. 34, 4-(4-Methyl-piperazin-1-yl)-N-{6-[2-(3-trifluoromethyl-benzyloxy)-ethoxy]-1H-indazol-3-yl}-benzamide] |
| < 50 nM | < 50 nM |  | CN1CCN(c2ccc(C(=O)Nc3n[nH]c4cc(OCCOCc5ccccc5)ccc34)c(F)c2)CC1 [Cpd. 38, N-[6-(2-Benzyloxy-ethoxy)-1H-indazol-3-yl]-2-fluoro-4-(4-methyl-piperazin-1-yl)-benzamide] |
| 81 nM | 50 nM |  | CN1CCN(c2ccc(C(=O)Nc3n[nH]c4cc(OC/C=C/c5ccccc5)ccc34)cc2)CC1 [Cpd. 39, 4-(4-Methyl-piperazin-1-yl)-N-[6-((E)-3-phenyl-allyloxy)-1H-indazol-3-yl]-benzamide] |
| < 50 nM | < 50 nM |  | COc1ccc(COCCOc2ccc3c(NC(=O)c4ccc(N5CCN(C)CC5)cc4)n[nH]c3c2)cc1 [Cpd. 40, N-{6-[2-(4-Methoxy-benzyloxy)-ethoxy]-1H-indazol-3-yl}-4-(4-methyl-piperazin-1-yl)-benzamide] |
| 240 nM | 118 nM |  | CN1CCN(c2ccc(C(=O)Nc3n[nH]c4cc(OCCOCc5ccccc5)ccc34)c(N3CCN(C)CC3)c2)CC1 [Cpd. 43, N-[6-(2-Benzyloxy-ethoxy)-1H-indazol-3-yl]-2,4-bis-(4-methyl-piperazin-1-yl)-benzamide] |

| Structure (SMILES) | IC50 [1] | IC50 [2] | IC50 [3] |
| --- | --- | --- | --- |
| CN1CCN(c2ccc(C(=O)Nc3n[nH]c4cc(Oc5cccc(F)c5)ccc34)cc2)CC1 [Cpd. 3, N-[6-(3-Fluoro-phenoxy)-1H-indazol-3-yl]-4-(4-methyl-piperazin-1-yl)-benzamide] | 990 nM | 987 nM |  |
| CN1CCN(c2ccc(C(=O)Nc3n[nH]c4cc(OCc5cccc(Oc6ccccc6)c5)ccc34)cc2)CC1 [Cpd. 5, 4-(4-Methyl-piperazin-1-yl)-N-[6-(3-phenoxy-benzyloxy)-1H-indazol-3-yl]-benzamide] | 557 nM | 513 nM |  |
| CN1CCN(c2ccc(C(=O)Nc3n[nH]c4cc(OC5CCN(Cc6ccccc6)CC5)ccc34)cc2)CC1 [Cpd. 6, N-[6-(1-Benzyl-piperidin-4-yloxy)-1H-indazol-3-yl]-4-(4-methyl-piperazin-1-yl)-benzamide] | 673 nM | 163 nM |  |
| CN1CCN(c2ccc(C(=O)Nc3n[nH]c4cc(OCC#Cc5ccccc5)ccc34)cc2)CC1 [Cpd. 7, 4-(4-Methyl-piperazin-1-yl)-N-[6-(3-phenyl-prop-2-ynyloxy)-1H-indazol-3-yl]-benzamide] | 240 nM | 110 nM |  |
| CN(C)Cc1ccc(C(=O)Nc2n[nH]c3cc(OCCOCc4ccccc4)ccc23)cc1 [Cpd. 21, N-[6-(2-Benzyloxy-ethoxy)-1H-indazol-3-yl]-4-dimethylaminomethyl-benzamide] | 68 nM |  |  |
